US9982017B2, “Synthetic apelin mimetics for the treatment of heart failure” (priority 2012, dated 2018)
Where a SMILES comes first, the peptide text is derived from it. Bridges are numbered along the chain shown (N, C = ends). [ ]: non-standard residue; d: D form. Nle = CCCC[C@H](N)C(=O)O

What was measured:
hAPJ = biological target: T1, hAPJ (Homo sapiens, UniProt P35414); assay: hAPJ Calcium Flux Assay; assay type: cell-based
T1 sequence (P35414 1-380): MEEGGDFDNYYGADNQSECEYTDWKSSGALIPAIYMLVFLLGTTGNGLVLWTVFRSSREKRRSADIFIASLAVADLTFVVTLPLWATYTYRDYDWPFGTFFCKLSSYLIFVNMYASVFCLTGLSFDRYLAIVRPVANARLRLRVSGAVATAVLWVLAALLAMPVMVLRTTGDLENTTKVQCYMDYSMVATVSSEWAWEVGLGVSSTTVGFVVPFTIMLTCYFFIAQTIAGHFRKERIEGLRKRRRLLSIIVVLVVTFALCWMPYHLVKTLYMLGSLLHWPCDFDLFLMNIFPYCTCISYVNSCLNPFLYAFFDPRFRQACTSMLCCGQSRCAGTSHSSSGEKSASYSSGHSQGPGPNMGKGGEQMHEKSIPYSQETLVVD
Description: Chem-5 APJ stable cells (Millipore # HTS068C) were plated in 384-well format with 10,000 cells/well in 25 ul growth media, then grown 24 hours in a 37° C. tissue culture incubator. One hour before the assay, 25 ul/well FLIPR Calcium 4 dye (Molecular Devices R8142) with 2.5 mM probenecid was added, and cells were incubated one hour in a 37° C. tissue culture incubator. Peptides were solubilized in HBSS, HEPES & 0.1% BSA buffer, and serially-diluted 10-fold, from 50 uM to 5 pM, in triplicate. FLIPR Tetra was used to add peptide to the cells with dye (1:5, for final peptide concentrations ranging from 10 uM to 1 pM). FLIPR dye inside the cells emitted fluorescence after binding to calcium, while fluorescence from outside the cells was masked. Fluorescence was measured using 470-495 excitation and 515-575 emission wavelengths on the FLIPR Tetra. Readings were done for 3 minutes total, beginning 10 seconds before the peptide addition. Maximum-minimum values were calculated and plotted for each peptide concentration, and Graph Pad prism software was used to calculate EC50 values at the curve inflection points, for calcium flux stimulation by peptides.

[1] = Surrogate Activity-Based Plasma Stability Assay (calcium flux EC50 after incubation with 5% rat plasma); details: not told
Description: The slope of this line, k, was determined by linear regression (Microsoft Excel). • Stability half-life was then calculated by the formula, t ½=0.693÷k Surrogate Activity-Based Plasma Stability Assay:
The calcium flux protocol described above was followed, with the following changes. The peptides were also incubated with 5% rat plasma (Bioreclamation # [sequence]-M, Na Heparin-treated). Readings were taken at time points t0 and t24 hrs, after incubation in a 37° C. tissue culture incubator. Peptide plasma half-life in minutes was estimated by calculating the following:
2) Calculate slope of value above and

With CCCC[C@@H]1NC(=O)[C@@H]2CCCN2C(=O)CNC(=O)[C@H](CCCCN)NC(=O)[C@H](Cc2ccccc2)NC(=O)[C@@H]2CSSC[C@H](NC1=O)C(=O)N[C@@H](Cc1ccccc1)C(=O)NCC(=O)NCC(=O)N[C@@H](CCC(N)=O)C(=O)N[C@@H](CCCNC(=N)N)C(=O)N1CCC[C@H]1C(=O)N[C@@H](CCCNC(=N)N)C(=O)N[C@@H](CC(C)C)C(=O)N2 [Example 7, Q-R-P-R-L-C-F-K-G-P-Nle-C-F-G-G] (cyclo(CFGGQRPRLCFKGP[Nle]); disulfide 1-10) the EC50 (hAPJ) was 90.9 nM and the half-life [1] was over 16.7 h.
